Results reported in PMC7663597, “Structure–Activity Relationship of Aloperine Derivatives as New Anti–Liver Fibrogenic Agents” (Molecules, 2020).

What was measured:
[1] = LX-2 cell survival, sulforhodamine B (SRB) assay; type: cell-based; conditions: human, LX-2 cells
Method: LX-2 cell survival was measured by sulforhodamine B (SRB) assay. The cells were seeded in 96-well plates at the density of 2 × 10^4/well and cultured in DMEM/GlutaMAX I medium with 10% fetal bovine serum (FBS) with 5% CO2, 37 °C. The cells were treated by the aloperine derivates for 24 h, washed by PBS for three times. Then the cells were fixed with 10% (wt/vol) trichloroacetic acid for 1 h and stained with SRB for 0.5 h. Subsequently, the protein-bound dye was dissolved in 10 mM Tris base solution after removing excess SRB dye washing repeatedly with 1% (vol/vol) acetic acid, the optical density (OD) was determined at 510 nm with a microplate reader.

[2] = HepG2 cell survival, MTT assay; type: cell-based; conditions: human, HepG2 cells
Method: HepG2 cell survival was measured by MTT assay. HepG2 cells, at density of 6x10^3 cells/well in 96-well culture plates, were incubated with the aloperine derivates at various concentrations until the cells at 50% confluence for 24 h. 20 µL of the MTT (5 mg/mL) solution was added to each plate and incubated with 5% CO2, 37 °C for 4 h. Subsequently, withdrawing the culture supernatant containing MTT, 150 µL DMSO was used for dissolving the formazan crystal. The absorbance was measured using a microplate reader at 570 nm.

COL1A1 promotor = COL1A1 promotor luciferase reporter gene assay in TGF-β1-treated LX-2 cells; type: cell-based, human; conditions: for inhibition at 40 µM / inhibition at 80 µM / IC50: Homo sapiens; for inhibition at 40 µM / inhibition at 80 µM: LX-2, 24 h; for inhibition at 40 µM: 24 h with TGF-β1, read-out: Inhibition Percentage 40 μM (inhibition rate of COL1A1 promotor's activity); for inhibition at 80 µM: 24 h with TGF-β1, read-out: Inhibition Percentage 80 μM (inhibition rate of COL1A1 promotor's activity); for IC50: read-out: IC50 (concentration required to inhibit 50% of COL1A1 promotor's activity)
Method: A single luciferase reporter gene detection model was applied to evaluate the inhibitory effects of all target compounds on the expression of COL1A1 promotor in human hepatic stellate LX-2 cells at the concentrations of 40 and 80 μM, taking EGCG as the positive control. The LX-2 cell lines were transfected with COL1A1 promotor luciferase plasmid pGL4.17-COL1A1P for 24 h, then simultaneously treated with TGF-β1 and a tested compound for 24 h.
(§1) Cells were maintained on Dulbecco’s Modified Eagle’s medium (DMEM), laid on 96-well plate. DMEM medium was supplemented with 10% fetal bovine serum (FBS) at 37 °C humidified atmosphere with 5% CO2. Furthermore, serum-free culture was required until the cells were confluent at 90−95%. 24 h later the cells were treated with a tested compound (40 and 80 μM) for 24 h. The COL1A1 promotor activity was detected by the Bright-Glo luciferase assay system. Alternatively, to test the acute effects of compound on luciferase activity, 24 h later the cells were lysed and the lysate was treated with a tested compound (80 μM) for 2 h, then the luciferase was detected by the Bright-Glo luciferase assay system (Promega, Madison, WI, USA).

luciferase = target: T1, luciferase (Photinus pyralis, UniProt P08659, K549A/L550V/N119G/N50D/S548I); assay: Acute effect on luciferase activity (cell lysate, 2 h); type: biochemical; conditions: 80 μM, 2-h treatment
T1 construct: expressed in transfected cells; host or cells: human hepatic stellate LX-2 cells transfected with pGL4.17-COL1A1P; lysate used
T1 sequence (P08659 whole entry N50D/N119G/S548I/K549A/L550V): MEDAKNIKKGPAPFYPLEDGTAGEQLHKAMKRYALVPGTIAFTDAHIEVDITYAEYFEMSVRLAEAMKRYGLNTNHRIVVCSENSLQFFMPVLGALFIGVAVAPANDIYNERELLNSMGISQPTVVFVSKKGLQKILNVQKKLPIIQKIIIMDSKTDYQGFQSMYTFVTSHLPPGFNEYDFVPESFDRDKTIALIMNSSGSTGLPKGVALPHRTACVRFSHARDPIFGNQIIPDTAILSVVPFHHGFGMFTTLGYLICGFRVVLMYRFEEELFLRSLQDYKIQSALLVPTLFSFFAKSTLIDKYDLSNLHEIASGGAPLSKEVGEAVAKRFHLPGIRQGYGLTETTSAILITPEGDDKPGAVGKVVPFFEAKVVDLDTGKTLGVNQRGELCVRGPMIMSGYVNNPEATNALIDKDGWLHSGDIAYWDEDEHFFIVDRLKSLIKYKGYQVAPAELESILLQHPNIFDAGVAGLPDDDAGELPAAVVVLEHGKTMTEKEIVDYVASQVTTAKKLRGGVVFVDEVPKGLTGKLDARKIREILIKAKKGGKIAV
Method: Then, their anti-COL1A1 potencies were verified by testing the half maximal inhibition concentration (IC50) values upon COL1A1 expression expression in LX-2 cells. […] Then, compounds 4i, 4n and 4p with the lower IC50 values were selected as the key compounds for further studies.
as §1

in vivo = conditions: both sexes, Kunming, mouse, po
Method: To evaluate the safety profiles of the key compounds 4i, 4n and 4p, an acute toxicity test was performed in Kunming mice. Compound 4i was given orally in a single-dosing experiment at 100, 300 and 400 mg kg^−1, while 4n at 300, 400, 500 mg kg^−1, and 4p at 200, 400, 500 mg kg^−1. The mice were closely monitored for 7 days.
Male and Female Kunming mice with weight of 20.0 ±1.0 g were obtained from the Institute of Laboratory Animal Science (Beijing, China). Animals wer e cared according to the institutional guidelines of the Institute of Medicinal Biotechnology, CAMS&PUMC (IMB-20190610D3), and fed with regular rodent chow and housed in an air conditioned room. The mice were randomly divided into different groups with four male mice and four female mice each. Each compound was given orally in a single-dosing experiment, the dose of 4i was 100, 300 and 400 mg kg^−1, the dose of 4n was 300, 400, 500 mg kg^−1, the dose of 4p was 200, 400, 500 mg kg^−1 (ddH2O as control). The mice were closely monitored for 7 days. Body weight as well as survival was monitored.

COL1A1 mRNA = assay: RT-PCR of COL1A1 mRNA in LX-2 cells; type: cell-based, human; conditions: 24 h
Method: (§2) In the absence or presence of TGF-β1 (2 ng/mL) treatment, LX-2 cells were treated with key compounds 4n and 4p at concentrations of 6 μM and 12 μM, or 4i at a concentration of 12 μM, respectively.
LX-2 cells were laid on 6-well plate and cultured in DMEM supplemented with 10% fetal bovine serum (FBS) in a 5% CO2 atmosphere at 37 °C. And serum-free culture was required until the cells reached 90−95% confluence. […] Total RNA of the LX-2 cells was isolated using TRIzol reagent, purified using NucleoSpin RNA Clean-up. Reverse transcription was performed with Transcriptor first strand cDNA synthesis kit. Subsequently, the cDNA levels was determined by ABI 7500 Fast Real-Time PCR System using TaqMan probes of COL1A1, TGF-β1, α-SMA, and GAPDH (sequence not disclosed by ABI) and FastStart Universal Probe master mix (Roche, Indianapolis, IN, USA).

TGFB1 mRNA = assay: RT-PCR of TGFB1 mRNA in LX-2 cells; type: cell-based, human; conditions: TGF-β1 (2 ng/mL) stimulation, 12 μM, 24 h
Method: as §2
Since the stimulation of TGF-β1 provokes the expression of a series of fibrosis genes, for example COL1A1 and TGFB1 [24, 25], the effects of key compounds on TGF-β1 expression were evaluated by RT-PCR and western blot assays. As shown in Figure 2B and Supplementary Table S1, the expression of TGFB1 mRNA was maintained at a low level, and the addition of a key compound seemed to have little effect on its expression.
LX-2 cells were laid on 6-well plate and cultured in DMEM supplemented with 10% fetal bovine serum (FBS) in a 5% CO2 atmosphere at 37 °C. And serum-free culture was required until the cells reached 90−95% confluence. After 24 h, cells were incubated with […] concentrations of aloperine derivatives in the presence of 2 ng/mL of TGF-β1 for 24 h. Total RNA of the LX-2 cells was isolated using TRIzol reagent, purified using NucleoSpin RNA Clean-up. Reverse transcription was performed with Transcriptor first strand cDNA synthesis kit. Subsequently, the cDNA levels was determined by ABI 7500 Fast Real-Time PCR System using TaqMan probes of COL1A1, TGF-β1, α-SMA, and GAPDH (sequence not disclosed by ABI) and FastStart Universal Probe master mix (Roche, Indianapolis, IN, USA).

| SMILES | melting point [°C] | inhibition at 40 µM (COL1A1 promotor; 40 μM) [%] | inhibition at 80 µM (COL1A1 promotor) [%] | further results |
| --- | --- | --- | --- | --- |
| O=C(CN1CCCC2=C[C@H]3C[C@H](CN4CCCC[C@H]34)[C@@H]21)Nc1ccc(-c2cc3ccccc3[nH]2)cc1 [4h, 12N-N′-[4-(1H-Indol-2-yl)phenyl]carbamoylmethyl aloperine] | 219 to 221 | 99.9 | 99.9 | CC50 at 24 h [1]: 7.5 ± 0.4 µM; CC50 at 24 h [2]: 18 ± 1.9 µM; IC50 (concentration required to inhibit 50% of COL1A1 promotor's activity) (COL1A1 promotor): failed to give a dose-dependent inhibition; Inhibition Percentage 40 μM (inhibition rate of COL1A1 promotor's activity) (COL1A1 promotor; 40 μM, 24 h with TGF-β1): 100.0 ± 0.0%; Acute effect on luciferase activity (luciferase): minimal inhibition |
| O=C(CN1CCCC2=C[C@H]3C[C@H](CN4CCCC[C@H]34)[C@@H]21)Nc1cc(Cl)cc(OC(F)(F)F)c1 [4i, 12N-N′-(3-Chloro-5-trifluoromethoxyphenyl)carbamoylmethyl aloperine] | – | 99.9 | 99.9 | LD50 at 7 days (in vivo): 100 mg/kg; CC50 at 24 h [1]: 19.5 ± 1.8 µM; CC50 at 24 h [2]: 22 ± 4.6 µM; Inhibitory rate of COL1A1 transcription (mRNA) (COL1A1 mRNA; TGF-β1 (2 ng/mL) stimulation, 12 μM): 97.4%; Inhibitory rate of COL1A1 transcription (mRNA) (COL1A1 mRNA; absence of TGF-β1, 12 μM): 45%; Inhibitory rate of TGFB1 mRNA expression (TGFB1 mRNA): 75.4%; IC50 (COL1A1 promotor): 8.4 ± 0.3 µM; Acute effect on luciferase activity (luciferase): minimal inhibition |
| O=C(CN1CCCC2=C[C@H]3C[C@H](CN4CCCC[C@H]34)[C@@H]21)NS(=O)(=O)c1ccccc1 [7a, 12N-N′-Benzenesulfonyl carbamoylmethyl aloperine] | 113 to 115 | 21.5 ± 4.3 | 17.1 ± 6.3 | – |
| O=C(CN1CCCC2=C[C@H]3C[C@H](CN4CCCC[C@H]34)[C@@H]21)NS(=O)(=O)c1cccc(C(F)(F)F)c1 [7b, 12N-N′-3-Trifluoromethylbenzenesulfonyl carbamoylmethyl aloperine] | 105 to 107 | 23.5 ± 13.5 | 20.2 ± 1.9 | – |
| O=C(CN1CCCC2=C[C@H]3C[C@H](CN4CCCC[C@H]34)[C@@H]21)NS(=O)(=O)c1ccc(Br)c(C(F)(F)F)c1 [7c, 12N-N′-(4-Bromo-3-trifluoromethylbenzenesulfonyl)carbamoylmethyl aloperine] | 79 to 81 | 32.9 ± 3.4 | 31.8 ± 3.1 | – |
| O=C(CN1CCCC2=C[C@H]3C[C@H](CN4CCCC[C@H]34)[C@@H]21)NS(=O)(=O)c1ccc2ccccc2c1 [7d] | 93 to 95 | 18.8 ± 5.2 | 9.4 ± 3.7 | – |
| CCS(=O)(=O)NCC(=O)N1CCCC2=C[C@H]3C[C@H](CN4CCCC[C@H]34)[C@@H]21 [10a, 12N-N′-Ethylsulfonylaminoacetyl aloperine] | 145 to 147 | 34 ± 7 | 34.9 ± 14.7 | – |
| CCCCS(=O)(=O)NCC(=O)N1CCCC2=C[C@H]3C[C@H](CN4CCCC[C@H]34)[C@@H]21 [10b, 12N-N′-n-Butylsulfonylaminoacetyl aloperine] | 98 to 100 | 41.1 ± 9.6 | 23.7 ± 22.7 | – |
| O=C(CNS(=O)(=O)c1ccccc1)N1CCCC2=C[C@H]3C[C@H](CN4CCCC[C@H]34)[C@@H]21 [10c, 12N-N′-Benzenesulfonylaminoacetylaloperine] | 63 to 65 | 23.7 ± 8.3 | 20.2 ± 6.4 | – |
| O=C(CNS(=O)(=O)c1cccc(Br)c1)N1CCCC2=C[C@H]3C[C@H](CN4CCCC[C@H]34)[C@@H]21 [10d, 12N-N′-m-Bromobenzenesulfonylaminoacetyl aloperine] | 101 to 103 | 28.5 ± 12.3 | 27.1 ± 10.1 | – |
| O=C(CNS(=O)(=O)c1cccc(C(F)(F)F)c1)N1CCCC2=C[C@H]3C[C@H](CN4CCCC[C@H]34)[C@@H]21 [10e, 12N-N′-m-Trifluoromethylbenzenesulfonylaminoacetyl aloperine] | 91 to 93 | 29.7 ± 5.1 | 26.7 ± 21.3 | – |
| O=C(CNS(=O)(=O)c1cccc(OC(F)(F)F)c1)N1CCCC2=C[C@H]3C[C@H](CN4CCCC[C@H]34)[C@@H]21 [10f, 12N-N′-m-Trifluoromethoxybenzenesulfonylaminoacetyl aloperine] | 81 to 83 | 43.4 ± 15.9 | 41.4 ± 7.4 | – |
| O=C(CNS(=O)(=O)c1cc(C(F)(F)F)cc(C(F)(F)F)c1)N1CCCC2=C[C@H]3C[C@H](CN4CCCC[C@H]34)[C@@H]21 [10g, 12N-N′-(3,5-Ditrifluoromethyl)benzenesulfonylaminoacetyl aloperine] | 78 to 80 | 48.4 ± 24.7 | 84 ± 0.5 | CC50 at 24 h [1]: 68.6 ± 11.7 µM; CC50 at 24 h [2]: 113 ± 3.4 µM; IC50 (COL1A1 promotor): 27.6 ± 3 µM; Acute effect on luciferase activity (luciferase): minimal inhibition |
